Reference: ChEMBL document CHEMBL2029281, “An improved microwave assisted one-pot synthesis, and biological investigations of some novel aryldiazenyl chromeno fused pyrrolidines” (2012)
Converted amounts (≈) assume the structure as drawn.

Tests used:
Streptococcus pneumoniae = experiment: Antibacterial activity against Streptococcus pneumoniae MTCC 1936 by macrobroth dilution assay; assay type: functional
Clostridium tetani = experiment: Antibacterial activity against Clostridium tetani MTCC 449 by macrobroth dilution assay; assay type: functional
Bacillus subtilis = experiment: Antibacterial activity against Bacillus subtilis MTCC 441 by macrobroth dilution assay; assay type: functional
Salmonella typhi = experiment: Antibacterial activity against Salmonella typhi MTCC 98 by macrobroth dilution assay; assay type: functional, Salmonella enterica subsp. enterica serovar Typhi; details: Salmonella enterica
Vibrio cholerae = experiment: Antibacterial activity against Vibrio cholerae MTCC 3906 by macrobroth dilution assay; assay type: functional
Escherichia coli = experiment: Antibacterial activity against Escherichia coli MTCC 443 by macrobroth dilution assay; assay type: functional
Aspergillus fumigatus = experiment: Antifungal activity against Aspergillus fumigatus MTCC 3008 by macrobroth dilution assay; assay type: functional
Candida albicans = experiment: Antifungal activity against Candida albicans MTCC 227 by macrobroth dilution assay; assay type: functional
[1] = test system: Mycobacterium tuberculosis; experiment: Growth inhibition of Mycobacterium tuberculosis H37Rv at 250 ug/mL; assay type: functional; details: read-out: GI
[2] = test system: Mycobacterium tuberculosis; experiment: Growth inhibition of Mycobacterium tuberculosis H37Rv at 0.2 ug/mL; assay type: functional; details: read-out: GI
[3] = test system: Mycobacterium tuberculosis; experiment: Growth inhibition of Mycobacterium tuberculosis H37Rv at >[…]; assay type: functional

Compound | MIC (Streptococcus pneumoniae) [µg/mL] | MIC (Clostridium tetani) [µg/mL] | MIC (Bacillus subtilis) [µg/mL] | MIC (Salmonella typhi) [µg/mL] | MIC (Vibrio cholerae) [µg/mL] | MIC (Escherichia coli) [µg/mL] | MIC (Aspergillus fumigatus) [µg/mL] | MIC (Candida albicans) [µg/mL] | inhibition of growth at 250 µg/mL [1] [%] | inhibition of growth at 0.2 µg/mL [2] [%] | growth inhibition (GI) [3] [%]
O=C(N[C@H](CO)[C@H](O)c1ccc([N+](=O)[O-])cc1)C(Cl)Cl [CHLORAMPHENICOL] | 50 (≈ 155 µM) | 50 (≈ 155 µM) | 50 (≈ 155 µM) | 50 (≈ 155 µM) | 50 (≈ 155 µM) | 50 (≈ 155 µM) |  |  |  |  | 
CCCOC(=O)[C@H]1C[C@@H]2COc3ccc(/N=N/c4ccccc4)cc3[C@@H]2N1Cc1ccccc1 | 200 (≈ 439 µM) | 250 (≈ 549 µM) | 250 (≈ 549 µM) | 250 (≈ 549 µM) | 100 (≈ 220 µM) | 250 (≈ 549 µM) | > 250 | 250 (≈ 549 µM) | 84 |  | 
CCCOC(=O)[C@H]1C[C@@H]2COc3ccc(/N=N/c4ccccc4)cc3[C@@H]2N1CC | > 250 | 200 (≈ 508 µM) | 200 (≈ 508 µM) | 100 (≈ 254 µM) | 100 (≈ 254 µM) | 50 (≈ 127 µM) | > 250 | > 250 | 95 |  | 
COC1=CC(=O)C[C@@H](C)[C@]12Oc1c(Cl)c(OC)cc(OC)c1C2=O [GRISEOFULVIN] |  |  |  |  |  |  | 100 (≈ 283 µM) | 500 (≈ 1420 µM) |  |  | 
NNC(=O)c1ccncc1 [ISONIAZID] |  |  |  |  |  |  |  |  |  | 99 | 
CCOC(=O)[C@H]1C[C@@H]2COc3ccc(/N=N/c4ccccc4)cc3[C@@H]2N1CC | 100 (≈ 264 µM) | 250 (≈ 659 µM) | > 250 | 250 (≈ 659 µM) | 250 (≈ 659 µM) | > 250 | 250 (≈ 659 µM) | > 250 | 98 |  | 
CCCOC(=O)[C@H]1C[C@@H]2COc3ccc(/N=N/c4ccccc4)cc3[C@@H]2N1C | 250 (≈ 659 µM) | > 250 | 250 (≈ 659 µM) | 250 (≈ 659 µM) | 250 (≈ 659 µM) | 250 (≈ 659 µM) | > 250 | > 250 | 41 |  | 
COC(=O)[C@H]1C[C@@H]2COc3ccc(/N=N/c4ccccc4)cc3[C@@H]2N1Cc1ccccc1 | 250 (≈ 585 µM) | 200 (≈ 468 µM) | 250 (≈ 585 µM) | 250 (≈ 585 µM) | > 250 | 125 (≈ 292 µM) | > 250 | 200 (≈ 468 µM) | 87 |  | 
NYSTATIN |  |  |  |  |  |  | 100 | 100 |  |  | 
CCCCOC(=O)[C@H]1C[C@@H]2COc3ccc(/N=N/c4ccccc4)cc3[C@@H]2N1CC | > 250 | 250 (≈ 613 µM) | 100 (≈ 245 µM) | 100 (≈ 245 µM) | > 250 | 200 (≈ 491 µM) | > 250 | 200 (≈ 491 µM) | 68 |  | 
COC(=O)[C@H]1C[C@@H]2COc3ccc(/N=N/c4ccccc4)cc3[C@@H]2N1C | 125 (≈ 356 µM) | > 250 | 125 (≈ 356 µM) | 200 (≈ 569 µM) | 100 (≈ 285 µM) | 200 (≈ 569 µM) | > 250 | 250 (≈ 711 µM) | 72 |  | 
CCCCOC(=O)[C@H]1C[C@@H]2COc3ccc(/N=N/c4ccccc4)cc3[C@@H]2N1Cc1ccccc1 | 25 (≈ 53.2 µM) | > 250 | 250 (≈ 532 µM) | 100 (≈ 213 µM) | 250 (≈ 532 µM) | 200 (≈ 426 µM) | > 250 | > 250 | 90 |  | 
CC1(C)S[C@@H]2[C@H](NC(=O)[C@H](N)c3ccccc3)C(=O)N2[C@H]1C(=O)O [AMPICILLIN] | 100 (≈ 286 µM) | 250 (≈ 715 µM) | 250 (≈ 715 µM) | 100 (≈ 286 µM) | 100 (≈ 286 µM) | 100 (≈ 286 µM) |  |  |  |  | 
CCn1cc(C(=O)O)c(=O)c2cc(F)c(N3CCNCC3)cc21 [NORFLOXACIN] | 10 (≈ 31.3 µM) | 50 (≈ 157 µM) | 100 (≈ 313 µM) | 10 (≈ 31.3 µM) | 10 (≈ 31.3 µM) | 10 (≈ 31.3 µM) |  |  |  |  | 
CCOC(=O)[C@H]1C[C@@H]2COc3ccc(/N=N/c4ccccc4)cc3[C@@H]2N1Cc1ccccc1 | 250 (≈ 566 µM) | 200 (≈ 453 µM) | 250 (≈ 566 µM) | > 250 | 200 (≈ 453 µM) | > 250 | > 250 | > 250 | 20 |  | 
CCOC(=O)[C@H]1C[C@@H]2COc3ccc(/N=N/c4ccccc4)cc3[C@@H]2N1C | 250 (≈ 684 µM) | 200 (≈ 547 µM) | > 250 | 50 (≈ 137 µM) | 125 (≈ 342 µM) | 50 (≈ 137 µM) | > 250 | > 250 | 64 |  | 
Cc1ncc([N+](=O)[O-])n1CCO [METRONIDAZOLE] |  |  |  |  |  |  |  |  |  |  | 99
CCN1[C@@H](C(=O)OC)C[C@@H]2COc3ccc(/N=N/c4ccccc4)cc3[C@@H]21 | 200 (≈ 547 µM) | > 250 | 200 (≈ 547 µM) | > 250 | > 250 | 200 (≈ 547 µM) | > 250 | > 250 | 55 |  | 
CCCCOC(=O)[C@H]1C[C@@H]2COc3ccc(/N=N/c4ccccc4)cc3[C@@H]2N1C | 250 (≈ 635 µM) | 100 (≈ 254 µM) | 50 (≈ 127 µM) | 250 (≈ 635 µM) | 200 (≈ 508 µM) | 250 (≈ 635 µM) | > 250 | > 250 | 25 |  | 
O=C(O)c1cn(C2CC2)c2cc(N3CCNCC3)c(F)cc2c1=O [CIPROFLOXACIN] | 50 (≈ 151 µM) |  |  | 25 (≈ 75.4 µM) | 25 (≈ 75.4 µM) | 25 (≈ 75.4 µM) |  |  |  |  | 
